These results are taken from patent publication EP2196204A1 (priority 2007, dated 2009).

The test system of the assay is DU-145. It counts as cell-based, human.

Structures are written as SMILES.

As for `CC(=O)O[C@H]1C(=O)[C@@]2(C)[C@H]([C@H](OC(=O)c3ccccc3)[C@]3(O)C[C@H](OC(=O)[C@H](O)[C@@H](NC(=O)c4ccccc4)c4ccccc4)C(C)=C1C3(C)C)[C@]1(OC(C)=O)CO[C@@H]1C[C@@H]2O` [Taxol], the Cell survival rate came to 63.88%.
